{
  "source": "patent US20090123377A1",
  "about": "“Method for Testing Substances or Mixtures of Substances,Use of Said Method and Corresponding Test Kits” (BASF AKTIENGESELLSCHAFT, priority 2005, published 2009)",
  "key": {"[1]": {"tested_on": "L-FABP", "settings": "rat, in vivo"}, "[2]": {"tested_on": "liver fatty acid binding protein (L-FABP)", "settings": "rat, in vivo"}, "[3]": {"tested_on": "liver fatty acid binding protein (L-FABP)", "assay": "Proteomic analysis (2D gel electrophoresis) of L-FABP expression in liver of exposed rats", "settings": "for L-FABP (PHEN_M_ID=3368, ETHI_F_ID=4302, HEXA_F_ID=4425) spot under the influence of treatment: 2D gel, rat liver, after 10 d (RUN2), PHEN_M male, ETHI_F and HEXA_F female rats; for amount of L-FABP in the liver, early change: after only a few hours of exposure, male animals (phenobarbital), females (alpha-hexachlorocyclohexane); for expression in the liver of L-FABP (ETHI_F_ID 4302) compared with the controls: longer exposure time and higher dosage, dose-dependent, statistical analysis of 2D gels"}},
  "note": "Read-outs that look alike come from different tables or passages of the source.",
  "data": [
    {"compound": "ClC(Cl)(Cl)Cl", "note": "[tetrachloromethane]", "values": [
      {"measurement": "L-FABP level by Western blotting", "setting": "[1]", "result": "decrease in L-FABP"}
    ]},
    {"compound": "Cc1c(N)cccc1N", "note": "[2,6-diaminotoluene]", "values": [
      {"measurement": "L-FABP level by Western blotting", "setting": "[1]", "result": "no change in the L-FABP level"}
    ]},
    {"compound": "C#C[C@]1(O)CC[C@H]2[C@@H]3CCc4cc(O)ccc4[C@H]3CC[C@@]21C", "note": "[ethinylestradiol]", "values": [
      {"measurement": "L-FABP (PHEN_M_ID=3368, ETHI_F_ID=4302, HEXA_F_ID=4425) spot under the influence of treatment", "setting": "[2]", "result": "disappears"},
      {"measurement": "expression in the liver of L-FABP (ETHI_F_ID 4302) compared with the controls", "setting": "[2]", "result": "significantly less expression"}
    ]},
    {"compound": "CCC1(c2ccccc2)C(=O)NC(=O)NC1=O", "note": "[phenobarbital]", "values": [
      {"measurement": "L-FABP (PHEN_M_ID=3368, ETHI_F_ID=4302, HEXA_F_ID=4425) spot under the influence of treatment", "setting": "[3]", "result": "disappears"},
      {"measurement": "amount of L-FABP in the liver, early change", "setting": "[3]", "result": "changed"},
      {"measurement": "expression in the liver of L-FABP (ETHI_F_ID 4302) compared with the controls", "setting": "[3]", "result": "significantly less expression"},
      {"measurement": "L-FABP level by Western blotting", "setting": "[1]", "result": "confirm the results of the proteomic analysis"}
    ]},
    {"compound": "c1ccoc1", "note": "[furan]", "values": [
      {"measurement": "L-FABP level by Western blotting", "setting": "[1]", "result": "decrease in L-FABP"}
    ]},
    {"compound": "Cc1ccc(N)cc1N", "note": "[2,4-diaminotoluene]", "values": [
      {"measurement": "L-FABP level by Western blotting", "setting": "[1]", "result": "no change in the L-FABP level"}
    ]},
    {"compound": "Cl[C@H]1[C@H](Cl)[C@H](Cl)[C@@H](Cl)[C@H](Cl)[C@H]1Cl", "note": "[alpha-hexachlorocyclohexane]", "values": [
      {"measurement": "L-FABP (PHEN_M_ID=3368, ETHI_F_ID=4302, HEXA_F_ID=4425) spot under the influence of treatment", "setting": "[3]", "result": "disappears"},
      {"measurement": "amount of L-FABP in the liver, early change", "setting": "[3]", "result": "changed"},
      {"measurement": "expression in the liver of L-FABP (ETHI_F_ID 4302) compared with the controls", "setting": "[3]", "result": "significantly less expression"},
      {"measurement": "L-FABP level by Western blotting", "setting": "[1]", "result": "confirm the results of the proteomic analysis"}
    ]}
  ]
}
